Test results: patent US20240368135A1 (VERTEX PHARMACEUTICALS INCORPORATED, priority 2021, published 2024)

What follows are compounds tested against human NaV 1.8 (Homo sapiens, UniProt Q9Y5Y9) (assay: E-VIPR assay detecting and measuring NaV inhibition properties). Conditions: HEK cells expressing truncated human NaV 1.8; in the presence of human serum (compound numbers followed by *); read-out: IC50 in the E-VIPR Assay, performed in the presence of human serum.
Chain of human NaV 1.8 (Q9Y5Y9 126-399 limits assumed): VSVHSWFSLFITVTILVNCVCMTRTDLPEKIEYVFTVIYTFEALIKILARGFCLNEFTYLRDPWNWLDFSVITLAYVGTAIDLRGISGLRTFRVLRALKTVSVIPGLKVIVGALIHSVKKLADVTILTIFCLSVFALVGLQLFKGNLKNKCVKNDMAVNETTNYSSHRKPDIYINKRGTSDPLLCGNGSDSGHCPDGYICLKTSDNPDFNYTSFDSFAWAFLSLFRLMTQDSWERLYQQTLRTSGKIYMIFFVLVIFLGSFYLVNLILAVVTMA
Chain of human NaV 1.8 (Q9Y5Y9 660-890 limits assumed): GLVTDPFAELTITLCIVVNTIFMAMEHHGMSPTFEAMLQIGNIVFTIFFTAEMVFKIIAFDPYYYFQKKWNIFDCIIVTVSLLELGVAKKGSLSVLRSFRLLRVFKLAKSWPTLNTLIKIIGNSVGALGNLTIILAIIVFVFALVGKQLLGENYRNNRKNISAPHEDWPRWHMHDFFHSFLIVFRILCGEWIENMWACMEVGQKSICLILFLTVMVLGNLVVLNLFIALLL
Chain of human NaV 1.8 (Q9Y5Y9 1148-1722 limits assumed): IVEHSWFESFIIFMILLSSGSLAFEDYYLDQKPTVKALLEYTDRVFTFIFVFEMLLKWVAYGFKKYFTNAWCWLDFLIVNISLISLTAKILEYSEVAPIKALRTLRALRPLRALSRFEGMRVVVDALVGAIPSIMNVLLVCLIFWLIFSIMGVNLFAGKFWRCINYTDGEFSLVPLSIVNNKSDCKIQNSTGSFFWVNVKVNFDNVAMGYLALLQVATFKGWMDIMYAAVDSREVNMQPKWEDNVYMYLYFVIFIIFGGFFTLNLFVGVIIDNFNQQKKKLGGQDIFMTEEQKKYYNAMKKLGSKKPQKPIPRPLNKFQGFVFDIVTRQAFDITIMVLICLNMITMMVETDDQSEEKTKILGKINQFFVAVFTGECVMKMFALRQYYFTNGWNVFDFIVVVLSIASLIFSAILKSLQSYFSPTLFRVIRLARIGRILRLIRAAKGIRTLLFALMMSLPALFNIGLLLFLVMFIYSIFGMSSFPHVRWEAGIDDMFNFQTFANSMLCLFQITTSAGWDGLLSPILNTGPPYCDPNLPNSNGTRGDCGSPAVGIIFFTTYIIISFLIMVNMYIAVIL
Assay type: cell-based
From the text: Sodium ion channels are voltage-dependent proteins that can be activated by inducing membrane voltage changes by applying electric fields. The electrical stimulation instrument and methods of use, referred to as E-VIPR, are described in International Publication No. WO 2002/008748 A3 and C.-J. Huang et al. Characterization of voltage-gated sodium channel blockers by electrical stimulation and fluorescence detection of membrane potential, 24 Nature Biotech. 439-46 (2006), both of which are incorporated by reference in their entirety. The instrument comprises a microtiter plate handler, an optical system for exciting the coumarin dye while simultaneously recording the coumarin and oxonol emissions, a waveform generator, a current- or voltage-controlled amplifier, and parallel electrode pairs that are inserted into assay plate wells. Under integrated computer control, this instrument passes user-programmed electrical stimulus protocols to cells within the wells of the microtiter plate.
16-20 hours prior to running the assay on E-VIPR, HEK cells expressing a truncated form of human NaV 1.8 with full channel activity were seeded into microtiter 384-well plates, pre-coated with matrigel, at a density of 25,000 cells per well. 2.5-5% KIR2.1 Bacmam virus was added to the final cell suspension before seeding into cell plates. HEK cells were grown in Dulbecco's Modified Eagle's Medium (DMEM) supplemented with 10% FBS (Fetal Bovine Serum, qualified; Sigma #F4135), 1% NEAA (Non-Essential Amino Acids, Gibco #11140), 1% HEPES (Gibco #15630), 1% Pen-Strep (Penicillin-Streptomycin; Gibco #15140) and 5 μg/ml Blasticidin (Gibco #R210-01). Cells were expanded in vented cap cell culture flasks, with 90-95% humidity and 5% CO2.
Human Serum (HS, Millipore #S1P1-01KL, or Sigma SLBR5469V and SLBR5470V as a 50%/50% mixture, for 25% assay final concentration) • Bath 1 Buffer: • Sodium Chloride 160 mM (9.35 g/L), Potassium Chloride, 4.5 mM (0.335 g/L), Glucose 10 mM (1.8 g/L), Magnesium Chloride (Anhydrous) 1 mM (0.095 g/L), Calcium Chloride 2 mM (0.222 g/L), HEPES 10 mM (2.38 g/L) in water. • Na/TMA C1 Bath 1 Buffer: • Sodium Chloride 96 mM (5.61 g/L), Potassium Chloride 4.5 mM (0.335 g/L), Tetramethylammonium (TMA)-Cl 64 mM (7.01 g/L), Glucose 10 mM (1.8 g/L), Magnesium Chloride (Anhydrous) 1 mM (0.095 g/L), Calcium Chloride 2 mM (0.222 g/L) HEPES 10 mM (2.38 g/L) in water. • Hexyl Dye Solution (2× concentration): • Bath 1 Buffer containing 0.5% P-cyclodextrin (made fresh prior to each use, Sigma #C4767), 8 μM CC2-DMPE and 2 μM DiSBAC6(3). The solution was made by adding 10% Pluronic F127 stock equal to combined volumes of CC2-DMPE and DiSBAC6(3). The order of preparation was first mix Pluronic and CC2-DMPE, then add DiSBAC6(3), then while vortexing add Bath 1/p-Cyclodextrin.
Compound Loading Buffer (2× concentration): Na/TMA C1 Bath1 Buffer containing HS (omitted in experiments run in the absence of human serum (HS)) 50%, VABSC-1 1 mM, BSA 0.2 mg/ml (in Bath-1), KCl 9 mM, DMSO 0.625%.
1) To reach the final concentration in each well, 375 nL of each compound was pre-spotted (in neat DMSO) into polypropylene compound plates at 240× desired final concentration from an intermediate stock concentration of 0.075 mM, in an 11 point dose response, 3-fold dilution, resulting in a top dose of 300 nM final concentration in the cell plate. Vehicle control (neat DMSO), and positive control (an established NaV1.8 inhibitor, 25 μM final in assay in DMSO) were added manually to the outermost columns of each plate respectively. The compound plate was backfilled with 45 μL per well of Compound Loading Buffer resulting in a 240 fold dilution of compound following a 1:1 transfer of compound into the cell plate (see Step 6). Final DMSO concentration for all wells in the assay was 0.625% (0.75% DMSO was supplemented to the Compound Loading Buffer for a final DMSO concentration of 0.625%). […]
For `COc1c([C@@H]2[C@@H](C(=O)Nc3cc[n+]([O-])c(C(O)CO)c3)O[C@](C)(C(F)(F)F)[C@@H]2C)ccc(F)c1C` (relative stereo) [Compound 138, rel-2-(1,2-dihydroxyethyl)-4-((2S,3R,4R,5S)-3-(4-fluoro-2-methoxy-3-methylphenyl)-4,5-dimethyl-5-(trifluoromethyl)tetrahydrofuran-2-carboxamido)pyridine 1-oxide], the IC50 was ≥ 1 µM. For `COc1c([C@@H]2C[C@](C)(C(F)(F)F)O[C@H]2C(=O)Nc2ccnc([C@@H](O)[C@H](C)O)c2)ccc(F)c1F` (relative stereo) [Compound 700, rel-(2R,3S,5R)-3-(3,4-difluoro-2-methoxyphenyl)-N-(2-((1R,2S)-1,2-dihydroxypropyl)pyridin-4-yl)-5-methyl-5-(trifluoromethyl)tetrahydrofuran-2-carboxamide], the IC50 was 0.01 to 0.1 µM.

Same assay, conditions: HEK cells expressing truncated human NaV 1.8; no human serum; read-out: IC50 in the E-VIPR Assay
In the case of `COc1c(C2C(C(=O)Nc3ccn4nnnc4c3)OC(C)(C(F)(F)F)C2C)ccc(F)c1C` (racemic) [Compound 132, 3-(4-fluoro-2-methoxy-3-methyl-phenyl)-4,5-dimethyl-N-(tetrazolo[1,5-a]pyridin-7-yl)-5-(trifluoromethyl)tetrahydrofuran-2-carboxamide], the IC50 is reported as < 0.01 µM. With `Cc1nn(C(F)F)cc1NC(=O)[C@@H]1O[C@@](C)(C(F)(F)F)[C@@H](C)[C@H]1c1ccc(F)c(F)c1CN1CC(O)C1` (racemic) [Compound 673, rac-(2R,3S,4S,5R)-3-(3,4-difluoro-2-((3-hydroxyazetidin-1-yl)methyl)phenyl)-N-(1-(difluoromethyl)-3-methyl-1H-pyrazol-4-yl)-4,5-dimethyl-5-(trifluoromethyl)tetrahydrofuran-2-carboxamide] the IC50 was 0.1 to 1 µM. `COc1c([C@H]2[C@H](C(=O)Nc3ccnc(C(C)(O)CO)c3)O[C@@](C)(C(F)(F)F)[C@H]2C)ccc(F)c1F` (relative stereo) [Compound 3, rel-(2R*,3S*,4S*,5R*)-3-(3,4-difluoro-2-methoxyphenyl)-N-(2-(1,2-dihydroxypropan-2-yl)pyridin-4-yl)-4,5-dimethyl-5-(trifluoromethyl)tetrahydrofuran-2-carboxamide] was tested, and the IC50 was < 0.01 µM. For `CCOc1c([C@H]2[C@H](C(=O)Nc3ccnc([S@@](C)(=O)=NC)c3)O[C@@](C)(C(F)(F)F)[C@H]2C)ccc(F)c1F` (relative stereo) [Compound 12, rel-(2R,3S,4S,5R)—N-(2-(N,S-dimethylsulfonimidoyl)pyridin-4-yl)-3-(2-ethoxy-3,4-difluorophenyl)-4,5-dimethyl-5-(trifluoromethyl)tetrahydrofuran-2-carboxamide], the IC50 was < 0.01 µM. `CCOc1c([C@@H]2[C@@H](C(=O)Nc3ccnc(S(C)(=N)=O)c3)O[C@](C)(C(F)(F)F)[C@@H]2C)ccc(F)c1C` (relative stereo) [Compound 124, rel-(2S,3R,4R,5S)-3-(2-ethoxy-4-fluoro-3-methylphenyl)-4,5-dimethyl-N-(2-(S-methylsulfonimidoyl)pyridin-4-yl)-5-(trifluoromethyl)tetrahydrofuran-2-carboxamide] was tested, and the IC50 was 0.1 to 1 µM. In the case of `CCOc1c([C@H]2[C@H](C(=O)Nc3ccnc(S(C)(=N)=O)c3)O[C@@](C)(C(F)(F)F)[C@H]2C)ccc(F)c1C` (relative stereo) [Compound 125, rel-(2R,3S,4S,5R)-3-(2-ethoxy-4-fluoro-3-methylphenyl)-4,5-dimethyl-N-(2-(S-methylsulfonimidoyl)pyridin-4-yl)-5-(trifluoromethyl)tetrahydrofuran-2-carboxamide], the IC50 is reported as < 0.01 µM. Compound `COc1c([C@@H]2[C@@H](C(=O)Nc3ccnc(S(C)(=N)=O)c3)O[C@](C)(C(F)(F)F)[C@@H]2C)ccc(F)c1C` (relative stereo) [Compound 150, rel-(2S,3R,4R,5S)-3-(4-fluoro-2-methoxy-3-methylphenyl)-4,5-dimethyl-N-(2-(S-methylsulfonimidoyl)pyridin-4-yl)-5-(trifluoromethyl)tetrahydrofuran-2-carboxamide] has an IC50 of 0.1 to 1 µM. `COc1c([C@H]2[C@H](C(=O)Nc3ccnc(S(C)(=N)=O)c3)O[C@@](C)(C(F)(F)F)[C@H]2C)ccc(F)c1C` (relative stereo) [Compound 151, rel-(2R,3S,4S,5R)-3-(4-fluoro-2-methoxy-3-methylphenyl)-4,5-dimethyl-N-(2-(S-methylsulfonimidoyl)pyridin-4-yl)-5-(trifluoromethyl)tetrahydrofuran-2-carboxamide] was tested, and the IC50 was < 0.01 µM. With `COc1c([C@H]2[C@H](C(=O)Nc3cc(O[C@@H]4COC[C@@H]4O)ncn3)O[C@@](C)(C(F)(F)F)[C@H]2C)ccc(F)c1F` (relative stereo) [Compound 238, (2R*,3S*,4S*,5R*)-3-(3,4-difluoro-2-methoxyphenyl)-N-(6-((cis-4-hydroxytetrahydrofuran-3-yl)oxy)pyrimidin-4-yl)-4,5-dimethyl-5-(trifluoromethyl)tetrahydrofuran-2-carboxamide] the IC50 was 0.01 to 0.1 µM. `COc1c([C@H]2[C@H](C(=O)N[C@@H]3C[C@H]3c3cnn(C)c3)O[C@@](C)(C(F)(F)F)[C@H]2C)ccc(F)c1F` (relative stereo) [Compound 266, rel-(2R*,3S*,4S*,5R*)-3-(3,4-difluoro-2-methoxyphenyl)-4,5-dimethyl-N-((1R,2S)-2-(1-methyl-1H-pyrazol-4-yl)cyclopropyl)-5-(trifluoromethyl)tetrahydrofuran-2-carboxamide] was tested, and the IC50 was ≥ 1 µM. `COc1c([C@H]2[C@H](C(=O)N[C@H]3C[C@@H]3c3cnn(C)c3)O[C@@](C)(C(F)(F)F)[C@H]2C)ccc(F)c1F` (relative stereo) [Compound 267, rel-(2R*,3S*,4S*,5R*)-3-(3,4-difluoro-2-methoxyphenyl)-4,5-dimethyl-N-((1S,2R)-2-(1-methyl-1H-pyrazol-4-yl)cyclopropyl)-5-(trifluoromethyl)tetrahydrofuran-2-carboxamide] was tested, and the IC50 was < 0.01 µM. For `CN=S(C)(=O)c1cc(NC(=O)[C@H]2O[C@](C)(C(F)(F)F)[C@H](C)[C@@H]2c2ccc(F)c(F)c2OC)ccn1` (relative stereo) [Compound 527, rel-(2S,3R,4R,5S)-3-(3,4-difluoro-2-methoxyphenyl)-N-(2-(N,S-dimethylsulfonimidoyl)pyridin-4-yl)-4,5-dimethyl-5-(trifluoromethyl)tetrahydrofuran-2-carboxamide], the IC50 was 0.1 to 1 µM. For `CN=S(C)(=O)c1cc(NC(=O)[C@@H]2O[C@@](C)(C(F)(F)F)[C@@H](C)[C@H]2c2ccc(F)c(F)c2OC)ccn1` (relative stereo) [Compound 528, rel-(2R,3S,4S,5R)-3-(3,4-difluoro-2-methoxyphenyl)-N-(2-(N,S-dimethylsulfonimidoyl)pyridin-4-yl)-4,5-dimethyl-5-(trifluoromethyl)tetrahydrofuran-2-carboxamide], the IC50 was < 0.01 µM. In the case of `Cc1nn(C(F)F)cc1NC(=O)[C@@H]1O[C@@](C)(C(F)(F)F)[C@@H](C)[C@H]1c1ccc(F)c(F)c1C(C)O` (relative stereo) [Compound 680, rac-(2R*,3S*,4S*,5R*)-3-(3,4-difluoro-2-(1-hydroxyethyl)phenyl)-N-(1-(difluoromethyl)-3-methyl-1H-pyrazol-4-yl)-4,5-dimethyl-5-(trifluoromethyl)tetrahydrofuran-2-carboxamide], the IC50 is reported as 0.01 to 0.1 µM.
